In patent US8664257B2, “Oxygen-substituted 3-heteroaroylamino-propionic acid derivatives and their use as pharmaceuticals” (Sanofi, priority 2010, dated 2014):
pIC50: −log10 of the molar value. Where two headings read alike, the source gives them in different places. Blank lines part the entries; values can stand above or below the molecule they belong to.

Molecular target: T1, Recombinant human cathepsin A (Homo sapiens, UniProt P10619)
T1 construct: Recombinant human cathepsin A (residues 29-480, with a C-terminal 10-His tag); 10-His (C); purchased R&D Systems 1049-SE
T1 sequence (P10619 29-312 limits assumed): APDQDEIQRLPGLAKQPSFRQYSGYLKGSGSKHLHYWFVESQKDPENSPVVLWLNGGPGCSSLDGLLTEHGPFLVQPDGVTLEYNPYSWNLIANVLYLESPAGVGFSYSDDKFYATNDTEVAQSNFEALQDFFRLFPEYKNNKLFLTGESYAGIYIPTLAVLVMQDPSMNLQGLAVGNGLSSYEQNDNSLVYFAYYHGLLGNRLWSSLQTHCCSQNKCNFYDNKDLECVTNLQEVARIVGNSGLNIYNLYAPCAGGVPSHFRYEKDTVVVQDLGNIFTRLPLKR
T1 sequence (P10619 327-480 limits assumed): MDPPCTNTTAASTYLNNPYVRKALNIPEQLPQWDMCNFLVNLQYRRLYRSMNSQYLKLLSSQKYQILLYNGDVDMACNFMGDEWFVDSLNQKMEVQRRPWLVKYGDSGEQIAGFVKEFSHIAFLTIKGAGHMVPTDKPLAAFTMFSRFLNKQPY
Assay: Cathepsin A inhibitory activity
Type: biochemical
In short: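 Read-out was microfluidic separation of cleaved vs. uncleaved Bodipy FL-bradykinin (2 μM), giving turnover, % inhibition and IC50. Compound and 833 ng/ml enzyme met for 15 min RT in pH 5.5 MES/DTT before substrate (15 min RT). The 29-480 His-tagged human enzyme was first activated by cathepsin L, then E-64 (10 μM).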

[1] = read-out: Activity (2): Cathepsin A inhibitory activity (IC50 class)
[2] = recombinant human cathepsin A 833 ng/ml, Bodipy FL-labeled bradykinin 2 μM, pH 5.5, read-out: CATH-A IC50
[3] = recombinant human cathepsin A, read-out: Activity (2): Cathepsin A inhibitory activity, IC50 class
[4] = read-out: Activity (2): Cathepsin A inhibitory activity, IC50 class
[5] = pharmacological test "Cathepsin A inhibitory activity", IC50 given as class A/B/C, read-out: Activity (2): Cathepsin A inhibitory activity, IC50 class

Compound: N#Cc1ccc([C@H](CC(=O)O)NC(=O)c2cc(O)n(-c3cccc(F)c3)n2)cc1 [Example 305]
pIC50 [4]: 6.00 to 7.00

Compound: O=C(O)C[C@H](NC(=O)c1cc(O)n(-c2ccccc2)n1)c1cccc(F)c1 [Example 166]
pIC50 [5]: 4.52 to 6.00

Compound: Cc1ccccc1C(CC(=O)O)NC(=O)c1cc(O)n(-c2ccc(Cl)cc2)n1 (centres unmarked) [Example 79]
pIC50 [4]: 6.00 to 7.00

Compound: CC(C)(C)[C@@](C)(O)COc1cc(C(=O)N[C@@H](CC(=O)O)c2ccc(F)cc2)nn1-c1ccccc1F [Example 771, (S)-3-(4-Fluoro-phenyl)-3-{[1-(2-fluoro-phenyl)-5-((R)-2-hydroxy-2,3,3-trimethyl-butoxy)-1H-pyrazole-3-carbonyl]-amino}-propionic acid]
pIC50 [1]: > 7.00
pIC50 [2]: 8.71

Compound: O=C(O)C[C@H](NC(=O)c1cc(O)n(-c2ccccc2)n1)c1cccc(Cl)c1 [Example 167]
pIC50 [5]: 6.00 to 7.00

Compound: O=C(O)C[C@H](NC(=O)c1cc(O)n(-c2ccc(F)cc2F)n1)c1ccc(C(F)(F)F)cc1 [Example 185]
pIC50 [5]: 6.00 to 7.00

Compound: CC(C)[C@](C)(O)COc1cc(C(=O)NC(CC(=O)O)Cc2ccccc2)nn1-c1ccccc1F (stereo partly drawn) [Example 826, 3-{[1-(2-Fluoro-phenyl)-5-((S)-2-hydroxy-2,3-dimethyl-butoxy)-1H-pyrazole-3-carbonyl]-amino}-4-phenyl-butyric acid]
pIC50 [4]: 6.00 to 7.00

Compound: COc1cccc(-n2nc(C(=O)N[C@@H](CC(=O)O)c3ccccc3C)cc2O)c1 [Example 94]
pIC50 [4]: 6.00 to 7.00

Compound: O=C(O)CC(NC(=O)c1cc(O)n(-c2ccccc2)n1)c1ccc(Cl)cc1 (centres unmarked) [Example 58]
pIC50 [4]: 6.00 to 7.00

Compound: CC(C)[C@](C)(O)COc1cc(C(=O)N[C@@H](CC(=O)O)c2ccc(Cl)cc2Cl)nn1-c1ccccc1F [Example 849, (S)-3-(2,4-Dichloro-phenyl)-3-{[1-(2-fluoro-phenyl)-5-((S)-2-hydroxy-2,3-dimethyl-butoxy)-1H-pyrazole-3-carbonyl]-amino}-propionic acid]
pIC50 [4]: > 7.00

Compound: Cc1ccccc1[C@H](CC(=O)O)NC(=O)c1cc(OC[C@@H](O)C(C)(C)C)n(-c2ccccc2F)n1 [Example 746, (S)-3-{[1-(2-Fluoro-phenyl)-5-((S)-2-hydroxy-3,3-dimethyl-butoxy)-1H-pyrazole-3-carbonyl]-amino}-3-o-tolyl-propionic acid]
pIC50 [1]: > 7.00

Compound: O=C(O)C[C@H](NC(=O)c1cc(O)n(-c2ccc(Cl)cc2)n1)c1cccnc1 [Example 298]
pIC50 [4]: 4.52 to 6.00

Compound: Cc1ccc(C)c(-n2nc(C(=O)NC(CC(=O)O)c3ccc(CC(C)C)cc3)cc2O)c1 (centres unmarked) [Example 46]
pIC50 [4]: 4.52 to 6.00

Compound: Cc1ccc(C)c(-n2nc(C(=O)NC(CC(=O)O)c3cccc(F)c3)cc2O)c1 (centres unmarked) [Example 49]
pIC50 [4]: 4.52 to 6.00

Compound: COc1cccc(C(CC(=O)O)NC(=O)c2cc(O)n(-c3ccccc3)n2)c1 (centres unmarked) [Example 9]
pIC50 [4]: 6.00 to 7.00

Compound: O=C(O)CC(NC(=O)c1cc(O)n(-c2ccccc2F)n1)c1cccc(Oc2ccc(Cl)cc2)c1 (centres unmarked) [Example 246]
pIC50 [5]: 6.00 to 7.00

Compound: O=C(O)CC1(NC(=O)c2cc(O)n(-c3ccccc3)n2)CCCC1 [Example 5]
pIC50 [4]: 4.52 to 6.00

Compound: O=C(O)CC(NC(=O)c1cc(O)n(-c2ccccc2)n1)c1ccc(Oc2ccccc2)cc1 (centres unmarked) [Example 102]
pIC50 [4]: 6.00 to 7.00

Compound: O=C(O)C[C@H](NC(=O)c1cc(O)n(-c2ccccc2Cl)n1)c1ccc(Cl)cc1Cl [Example 106]
pIC50 [4]: 6.00 to 7.00

Compound: Cc1ccc([C@H](CC(=O)O)NC(=O)c2cc(OC[C@@](C)(O)C(C)C)n(-c3ccccc3F)n2)cc1 [Example 766, (S)-3-{[1-(2-Fluoro-phenyl)-5-((S)-2-hydroxy-2,3-dimethyl-butoxy)-1H-pyrazole-3-carbonyl]-amino}-3-p-tolyl-propionic acid]
pIC50 [1]: > 7.00
pIC50 [2]: 9.16

Compound: O=C(O)C[C@H](NC(=O)c1cc(O)n(-c2ccccc2Cl)n1)c1c(F)cccc1F [Example 114]
pIC50 [4]: 6.00 to 7.00

Compound: N#Cc1ccc([C@H](CC(=O)O)NC(=O)c2cc(O)n(-c3ccc(Cl)cc3)n2)cc1 [Example 272]
pIC50 [4]: 4.52 to 6.00

Compound: COc1ccc(Cl)cc1C(CC(=O)O)NC(=O)c1cc(O)n(-c2ccccc2F)n1 (centres unmarked) [Example 234]
pIC50 [5]: 6.00 to 7.00

Compound: O=C(O)CC(NC(=O)c1cc(O)n(-c2ccccc2F)n1)c1ccc(-n2ccnc2)cc1 (centres unmarked) [Example 127]
pIC50 [4]: 4.52 to 6.00

Compound: Cc1cc(F)ccc1C(CC(=O)O)NC(=O)c1cc(O)n(-c2ccccc2Cl)n1 (centres unmarked) [Example 142]
pIC50 [5]: 6.00 to 7.00

Compound: Cc1ccc(C)c(-n2nc(C(=O)NC(CC(=O)O)c3cccc(Cl)c3)cc2O)c1 (centres unmarked) [Example 29]
pIC50 [4]: 4.52 to 6.00

Compound: COc1ccccc1[C@@H](NC(=O)c1cc(O)n(-c2ccccc2)n1)[C@@H](O)C(=O)O [Example 169]
pIC50 [5]: 4.52 to 6.00

Compound: CC(C)C(C)(O)COc1cc(C(=O)N[C@H](CC(=O)O)Cc2ccc(C#N)cc2)nn1-c1ccccc1F (stereo partly drawn) [Example 836, (S)-4-(4-Cyano-phenyl)-3-{[1-(2-fluoro-phenyl)-5-(2-hydroxy-2,3-dimethyl-butoxy)-1H-pyrazole-3-carbonyl]-amino}-butyric acid]
pIC50 [4]: 4.52 to 6.00

Compound: O=C(O)C[C@H](NC(=O)c1cc(O)n(-c2ccc(Cl)cc2)n1)c1cccc(Cl)c1 [Example 280]
pIC50 [4]: 4.52 to 6.00

Compound: COc1ccc(C(CC(=O)O)NC(=O)c2cc(O)n(-c3ccccc3)n2)c(C)c1C (centres unmarked) [Example 25]
pIC50 [4]: 4.52 to 6.00

Compound: O=C(O)CC(NC(=O)c1cc(O)n(-c2ccc(F)cc2F)n1)c1cccc(Cl)c1F (centres unmarked) [Example 192]
pIC50 [5]: 6.00 to 7.00

The next lines start with the values.

pIC50 [1]: > 7.00
Compound: Cc1ccccc1[C@H](CC(=O)O)NC(=O)c1cc(OCCc2c(C)noc2C)n(-c2ccccc2F)n1 [Example 628]

pIC50 [2]: 6.79
pIC50 [3]: 6.00 to 7.00
Compound: O=C(O)C[C@H](NC(=O)c1cc(O)n(-c2ccccc2Cl)n1)c1ccccc1Cl [Example 507, (S)-3-(2-Chloro-phenyl)-3-{[1-(2-chloro-phenyl)-5-hydroxy-1H-pyrazole-3-carbonyl]-amino}-propionic acid]

pIC50 [1]: 6.00 to 7.00
Compound: CCOc1cc(C(=O)N[C@@H](CC(=O)O)c2ccccc2OC)nn1-c1ccccc1Cl [Example 729]

pIC50 [1]: 4.52 to 6.00
pIC50 [2]: 5.12
Compound: COc1ccc(C(F)(F)F)cc1C(CC(=O)O)NC(=O)c1cc(O)n(-c2ccccc2Cl)n1 (centres unmarked) [Example 560, 3-{[1-(2-Chloro-phenyl)-5-hydroxy-1H-pyrazole-3-carbonyl]-amino}-3-(2-methoxy-5-trifluoromethyl-phenyl)-propionic acid]

pIC50 [1]: > 7.00
Compound: CCC(O)(CC)COc1cc(C(=O)N[C@@H](CC(=O)O)c2ccccc2C)nn1-c1ccccc1F [Example 756]

pIC50 [4]: 4.52 to 6.00
Compound: N#Cc1cccc([C@H](CC(=O)O)NC(=O)c2cc(O)n(-c3ccc(F)cc3)n2)c1 [Example 340]

pIC50 [1]: 6.00 to 7.00
Compound: O=C(O)CC(NC(=O)c1cc(O)n(Cc2ccccc2)n1)c1ccc(-c2ccc(F)cc2)cc1 (centres unmarked) [Example 538]

pIC50 [4]: 4.52 to 6.00
Compound: O=C(O)C[C@H](NC(=O)c1cc(O)n(-c2ccc(F)cc2F)n1)c1cccnc1 [Example 389]

pIC50 [2]: 6.81
pIC50 [3]: 6.00 to 7.00
Compound: Cc1c(F)cccc1C(CC(=O)O)NC(=O)c1cc(O)n(-c2ccccc2Cl)n1 (centres unmarked) [Example 455, 3-{[1-(2-Chloro-phenyl)-5-hydroxy-1H-pyrazole-3-carbonyl]-amino}-3-(3-fluoro-2-methyl-phenyl)-propionic acid]

pIC50 [1]: > 7.00
Compound: COc1cc(C(=O)N[C@@H](CC(=O)O)c2cccc(C)c2)nn1-c1ccccc1F [Example 670]

pIC50 [2]: 6.68
pIC50 [3]: 6.00 to 7.00
Compound: O=C(O)C[C@H](NC(=O)c1cc(O)n(-c2ccc(Cl)cc2)n1)c1ccccc1Cl [Example 474, (S)-3-(2-Chloro-phenyl)-3-{[1-(4-chloro-phenyl)-5-hydroxy-1H-pyrazole-3-carbonyl]-amino}-propionic acid]

pIC50 [4]: 6.00 to 7.00
Compound: O=C(O)CC(NC(=O)c1cc(O)n(-c2ccc(F)cc2F)n1)c1cccc(Cl)c1 (centres unmarked) [Example 380]

pIC50 [3]: > 7.00
Compound: COCCNC(=O)C[C@H](NC(=O)c1cc(OC)n(-c2ccccc2F)n1)c1ccccc1C [Example 935, 1-(2-Fluoro-phenyl)-5-methoxy-1H-pyrazole-3-carboxylic acid [(S)-2-(2-methoxy-ethylcarbamoyl)-1-o-tolyl-ethyl]-amide]

pIC50 [2]: 6.86
pIC50 [3]: 6.00 to 7.00
Compound: O=C(O)CC(NC(=O)c1cc(O)n(-c2ccccc2F)n1)c1cc(F)ccc1Cl (centres unmarked) [Example 475, 3-(2-Chloro-5-fluoro-phenyl)-3-{[1-(2-fluoro-phenyl)-5-hydroxy-1H-pyrazole-3-carbonyl]-amino}-propionic acid]

pIC50 [4]: 6.00 to 7.00
Compound: COc1ccc(C(CC(=O)O)NC(=O)c2cc(O)n(-c3ccc(F)cc3F)n2)c(OC)c1 (centres unmarked) [Example 383]

pIC50 [3]: 6.00 to 7.00
Compound: COc1cccc([C@H](CC(=O)O)NC(=O)c2cc(O)n(-c3cccc(F)c3)n2)c1 [Example 429]

pIC50 [3]: 4.52 to 6.00
Compound: COc1cc(C(=O)N[C@@H](CC(=O)NCc2ccncc2)c2ccccc2C)nn1-c1ccccc1F [Example 916, 1-(2-Fluoro-phenyl)-5-methoxy-1H-pyrazole-3-carboxylic acid {(S)-2-[(pyridin-4-ylmethyl)-carbamoyl]-1-o-tolyl-ethyl}-amide]

pIC50 [1]: > 7.00
Compound: COCCOc1cc(C(=O)N[C@@H](CC(=O)O)c2ccccc2C)nn1-c1ccccc1F [Example 617]
